The values below come from patent US20180354991A1, “THERAPEUTIC COMPOSITIONS INCLUDING GRAMICIDIN S PEPTIDYL CONJUGATES OR IMIDAZOLE-SUBSTITUTED FATTY ACIDS, VARIANTS THEREOF AND USES THEREOF” (Stealth Biotherapeutics Corp, priority 2015, published 2018).

This experiment concerns neonatal cardiomyocytes. In words: Ang II-induced mitochondrial superoxide (Mitosox) in neonatal cardiomyocytes. The experiment is classed as cell-based, mouse. To be noted: Angiotensin II 1 μM for 3 hours; peptide conjugates 1 nM or equimolar; NAC 0.5 mM. As to the method: Ventricles from mouse neonates younger than 72 hours will be dissected, minced, and enzymatically digested with Blendzyme 4 (45 mg/mL, Roche). After enzymatic digestion, cardiomyocytes will be enriched using differential pre-plating for 2 hours, and seeded on fibronectin-coated culture dishes for 24 hours in DMEM (Gibco) with 20% Fetal Bovine Seium (Sigma) and 25 μM Arabinosylcytosine (Sigma). Cardiomyocytes will be stimulated with Angiotensin II (1 μM) for 3 hours in serum-free DMEM containing 0.5% insulin transferrin-selenium (Sigma), 2 mM glutamine, and 1 mg/mL BSA. […] Samples will be analyzed using excitation/emission of 488/625 nm by flow cytometry. Flow data will be analyzed using FCS Express (De Novo Software, Los Angeles, Calif., U.S.A.), and presented as histogram distributions of Mitosox fluorescence intensity.

`CC(=O)N[C@@H](CS)C(=O)O` [N-acetyl cysteine]: the “Ang II-induced Mitosox fluorescence (mitochondrial ROS)” value was “not show any effect”.
